Measurements reported in BindingDB's records for patent US10053455 (Ab Science, 2018).

Biological target: Tyrosine-protein kinase SYK (Homo sapiens, UniProt P43405)
Experiment: In Vitro SYK Inhibition Assay
Details: pH 7.8; 25 °C
Procedure: SYK kinase was purified as a full length protein in a baculovirus system near homogeneity. All kinase assays were performed with the Kinase TK (tyrosine kinase) HTRF (Homogeneous Time Resolved Fluorescence) assay developed by Cisbio international. […] Reactions were initiated upon introduction of the enzyme and terminated with the addition of one reaction volume (25 μl) of HTRF detection buffer. Plates were incubated for one hour at room temperature and the time resolved Fluorescence resonance energy transfer signal was measured in a Pherastar FS microplate reader (BMG Labtech). All data were the average of triplicate results with a standard deviation <10%.

How did the IC50 turn out when `O=C1NCCN(c2ncc(-c3cccc(Nc4nccc(-c5cccnc5)n4)c3)o2)C12CC2` [US10053455, 019] was run?
The IC50 was < 500 nM.
